Measurements: ChEMBL document CHEMBL1129112, “Antioxidant and cholesterol lowering properties of 2,6-DI-t-butyl-4-[(dimethylphenylsilyl)methyloxy]phenol and derivatives: A new class of anti-atherogenic compounds” (1996)

How the values were obtained:
Assay type in all cases: functional
Oryctolagus cuniculus [1] = assay: Low density lipoprotein (LDL) percent control of cholesterol after administration in rabbits.; parameters: concentration or dose not given beside the values
Oryctolagus cuniculus [2] = species: Oryctolagus cuniculus; assay: Tested for antioxidant activity against serum thiobarbituric acid relative substances (TBARS),
Oryctolagus cuniculus [3] = assay: Total percent control of cholesterol after administration in rabbits.; parameters: concentration or dose not given beside the values
Oryctolagus cuniculus [4] = species: Oryctolagus cuniculus; assay: Total cholesterol present in New Zealand white rabbits fed with control diet (100 g/day) for seven days
Oryctolagus cuniculus [5] = assay: High density lipoprotein (HDL) percent control of cholesterol after administration in rabbits.; parameters: concentration or dose not given beside the values
Oryctolagus cuniculus [6] = species: Oryctolagus cuniculus; assay: The compound was tested for antioxidant activity against serum thiobarbituric acid relative substances (TBARS),

SMILES | Control (Oryctolagus cuniculus [1]) [%] | Control (Oryctolagus cuniculus [2]) [%] | Control (Oryctolagus cuniculus [3]) [%] | Activity (Oryctolagus cuniculus [4]) [mg/dL] | Control (Oryctolagus cuniculus [5]) [%] | Control (Oryctolagus cuniculus [6]) [%]
CC(C)(C)c1cc(SC[Si](C)(C)c2ccccc2)cc(C(C)(C)C)c1O | 42 | 17 | 52 | 119 | 75 | 
COc1ccc([Si](C)(C)COc2cc(C(C)(C)C)c(O)c(C(C)(C)C)c2)cc1 | 66 |  | 54 | 153 | 123 | 60
CC(C)(C)c1cc(OC[Si](C)(C)c2ccccc2)cc(C(C)(C)C)c1O | 69 |  | 72 | 165 | 81 | 28
CC(C)(C)c1cc(OC[Si](C)(C)c2ccc(Cl)cc2)cc(C(C)(C)C)c1O | 89 |  | 87 | 247 | 109 | 57
COc1ccccc1[Si](C)(C)COc1cc(C(C)(C)C)c(O)c(C(C)(C)C)c1 | 61 |  | 77 | 235 | 217 | 75
